Experiment [1] addresses T1, cGMP-dependent protein kinase 1 (Homo sapiens) (UniProt Q13976).
T1 sequence (whole entry): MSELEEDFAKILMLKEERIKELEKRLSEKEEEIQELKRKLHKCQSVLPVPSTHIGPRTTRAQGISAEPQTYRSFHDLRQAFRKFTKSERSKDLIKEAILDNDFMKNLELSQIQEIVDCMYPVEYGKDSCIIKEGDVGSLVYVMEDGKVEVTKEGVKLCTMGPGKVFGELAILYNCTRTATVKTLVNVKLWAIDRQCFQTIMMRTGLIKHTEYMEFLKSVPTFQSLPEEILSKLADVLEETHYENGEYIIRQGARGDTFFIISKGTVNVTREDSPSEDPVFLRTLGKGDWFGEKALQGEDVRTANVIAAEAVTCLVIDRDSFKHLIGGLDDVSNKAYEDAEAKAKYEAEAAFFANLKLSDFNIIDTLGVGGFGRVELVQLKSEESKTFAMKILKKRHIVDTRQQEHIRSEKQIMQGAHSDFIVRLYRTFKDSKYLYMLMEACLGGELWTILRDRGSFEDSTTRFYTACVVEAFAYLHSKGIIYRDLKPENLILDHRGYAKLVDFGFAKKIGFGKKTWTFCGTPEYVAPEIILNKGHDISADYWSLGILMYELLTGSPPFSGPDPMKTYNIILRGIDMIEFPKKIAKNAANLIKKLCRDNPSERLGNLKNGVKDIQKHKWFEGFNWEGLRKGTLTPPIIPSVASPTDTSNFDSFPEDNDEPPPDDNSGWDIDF
The conditions noted are these: at 10 µM.

In experiment [2] the target is T2, G protein-coupled receptor kinase 3 (Homo sapiens) (UniProt P35626).
T2 sequence (whole entry): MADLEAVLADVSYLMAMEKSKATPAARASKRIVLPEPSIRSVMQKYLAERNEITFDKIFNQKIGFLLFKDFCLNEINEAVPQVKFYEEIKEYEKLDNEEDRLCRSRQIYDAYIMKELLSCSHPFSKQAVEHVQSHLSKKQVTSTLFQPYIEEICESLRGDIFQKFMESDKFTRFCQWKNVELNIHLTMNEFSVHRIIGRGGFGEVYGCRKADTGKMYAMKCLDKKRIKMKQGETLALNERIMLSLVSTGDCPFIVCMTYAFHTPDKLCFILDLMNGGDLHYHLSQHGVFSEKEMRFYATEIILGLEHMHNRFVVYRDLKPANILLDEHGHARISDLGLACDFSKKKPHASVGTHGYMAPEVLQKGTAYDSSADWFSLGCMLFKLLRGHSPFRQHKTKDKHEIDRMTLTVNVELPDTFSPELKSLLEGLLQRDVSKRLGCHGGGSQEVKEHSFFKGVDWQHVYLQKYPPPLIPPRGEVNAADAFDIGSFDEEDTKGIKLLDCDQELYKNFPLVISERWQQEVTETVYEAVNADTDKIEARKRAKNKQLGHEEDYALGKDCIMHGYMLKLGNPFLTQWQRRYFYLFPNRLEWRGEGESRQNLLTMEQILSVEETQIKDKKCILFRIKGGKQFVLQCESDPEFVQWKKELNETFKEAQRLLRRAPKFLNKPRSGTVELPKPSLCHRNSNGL
Put plainly: Selectivity interaction (KinomeScan (DiscoverX)) EUB0001079a ADRBK2. The note with it: at 1 µM.

For experiment [3], the target named is Serine/threonine-protein kinase PLK1 (Homo sapiens, UniProt P53350). Briefly: Selectivity interaction (Kinase panel (Z-LYTE Assay)) EUB0001632a PLK1. The note with it: at 10 µM.
Experiment [4] concerns the target T3, Serine/threonine-protein kinase BRSK2 (Homo sapiens) (UniProt Q8IWQ3).
T3 sequence (whole entry): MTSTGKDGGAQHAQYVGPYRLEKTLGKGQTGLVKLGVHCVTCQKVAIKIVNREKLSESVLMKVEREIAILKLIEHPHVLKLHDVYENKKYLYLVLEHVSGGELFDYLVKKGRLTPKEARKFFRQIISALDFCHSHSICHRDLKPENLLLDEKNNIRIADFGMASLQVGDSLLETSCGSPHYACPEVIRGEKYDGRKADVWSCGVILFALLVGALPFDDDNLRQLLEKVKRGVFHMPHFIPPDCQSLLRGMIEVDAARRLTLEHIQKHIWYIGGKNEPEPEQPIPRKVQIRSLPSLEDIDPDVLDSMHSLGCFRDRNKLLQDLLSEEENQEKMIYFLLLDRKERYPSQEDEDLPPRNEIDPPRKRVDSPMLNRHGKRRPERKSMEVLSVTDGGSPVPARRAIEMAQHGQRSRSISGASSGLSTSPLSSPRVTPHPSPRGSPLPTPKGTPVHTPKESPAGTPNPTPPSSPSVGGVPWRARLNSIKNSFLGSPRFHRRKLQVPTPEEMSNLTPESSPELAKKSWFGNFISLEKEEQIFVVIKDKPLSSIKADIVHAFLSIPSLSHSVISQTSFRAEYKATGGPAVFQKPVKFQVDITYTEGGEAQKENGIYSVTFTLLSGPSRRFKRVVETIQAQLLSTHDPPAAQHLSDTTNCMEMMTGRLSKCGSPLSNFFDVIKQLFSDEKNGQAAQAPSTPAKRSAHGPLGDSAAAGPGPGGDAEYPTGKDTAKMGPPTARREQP
Briefly: Selectivity interaction (SelectScreen profiling (Invitrogen)) EUB0000607a BRSK2. The note with it: at 2 µM.

Experiment [5] has as its target Calcium/calmodulin-dependent protein kinase type 1D (Homo sapiens) (UniProt Q8IU85). Briefly: Selectivity interaction (ActivX KiNativ screen (kinase selectivity in THP-1 cell lysates)) EUB0000639a CAMK1D. Type of experiment: subcellular. The conditions noted are these: lysate, at 0.01 µM.

Chain of Calcium/calmodulin-dependent protein kinase type 1D (Homo sapiens) (Q8IU85 whole entry, looked up): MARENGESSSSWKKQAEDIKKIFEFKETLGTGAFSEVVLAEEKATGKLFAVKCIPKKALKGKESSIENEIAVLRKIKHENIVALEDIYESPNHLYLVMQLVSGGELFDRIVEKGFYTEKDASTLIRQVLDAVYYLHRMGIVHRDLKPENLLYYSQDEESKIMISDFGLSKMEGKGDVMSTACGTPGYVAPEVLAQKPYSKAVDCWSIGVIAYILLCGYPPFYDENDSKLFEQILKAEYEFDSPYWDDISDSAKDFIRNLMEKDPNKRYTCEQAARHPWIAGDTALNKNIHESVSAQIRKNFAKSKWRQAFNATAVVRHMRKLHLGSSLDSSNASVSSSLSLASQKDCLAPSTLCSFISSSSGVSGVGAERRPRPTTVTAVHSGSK
Chain of Serine/threonine-protein kinase PLK1 (P53350 whole entry): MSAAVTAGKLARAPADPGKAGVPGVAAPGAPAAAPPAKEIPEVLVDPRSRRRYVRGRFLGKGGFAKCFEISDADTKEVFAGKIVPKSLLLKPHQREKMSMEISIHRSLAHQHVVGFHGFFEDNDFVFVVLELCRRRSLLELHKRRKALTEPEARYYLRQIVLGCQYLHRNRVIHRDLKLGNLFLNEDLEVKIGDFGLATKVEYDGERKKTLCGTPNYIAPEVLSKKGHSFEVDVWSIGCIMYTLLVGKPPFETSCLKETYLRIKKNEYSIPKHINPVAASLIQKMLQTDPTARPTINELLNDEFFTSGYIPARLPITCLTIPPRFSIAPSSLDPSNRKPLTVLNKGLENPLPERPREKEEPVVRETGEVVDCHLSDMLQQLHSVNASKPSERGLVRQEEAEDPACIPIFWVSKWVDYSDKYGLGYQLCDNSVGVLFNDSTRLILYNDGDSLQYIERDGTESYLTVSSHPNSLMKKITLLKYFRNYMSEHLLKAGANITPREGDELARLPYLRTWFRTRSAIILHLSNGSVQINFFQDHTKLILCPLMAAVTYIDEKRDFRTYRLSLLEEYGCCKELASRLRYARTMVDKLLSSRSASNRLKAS

As for `Cc1cc([C@@H](C)Nc2ccccc2C(=O)O)c2nc(N3CCOCC3)cc(=O)n2c1` [AZD-6482], in experiment [1], the % of control was 100%.

With `Nc1cnc(N2CCc3cc(S(=O)(=O)Nc4c(F)cc(Cl)cc4F)cc(N4CCCC4=O)c32)nc1` [TP-020n], the % of control in experiment [2] was 100%. On to `Cn1cc(-n2cnc3c(NCc4nc5cc(Cl)c(Cl)cc5[nH]4)nc(N4CCOCC4)nc32)cn1`, for which the % of control in experiment [3] is 1.25%.

As to `CNC(=O)Nc1ccc(-c2nc(N3CC4CCC(C3)O4)c3cnn(C4CCC5(CC4)OCCO5)c3n2)cc1`, the % of inhibition in experiment [4] is 1%. On to `CC[C@@H]1[C@H](F)C(=O)N[C@@H]1COc1nccc2cc(C(N)=O)c(OC)cc12` [ZIMLOVISERTIB], for which the % of inhibition in experiment [5] was -1.8%.

(Values after ChEMBL document CHEMBL5465560, “Selectivity Literature for EUbOPEN Chemogenomic Library” (2024).)
